Measured values reported in patent publication EP4467141A1, “PYRAZOLO-QUINOLINES AS SELECTIVE INHIBITORS OF GENOTOXIC STRESS-INDUCED IKK/NF- KB PATHWAYS FOR CANCER THERAPY” (Max-Delbrück-Centrum für Molekulare Medizin in der …, priority 2023, dated 2024).

Key:
Assay in all cases: Kinase panel study
Format in all cases: biochemical
Conditions in all cases: read-out: Percentage of inhibition; for inhibition at 1 µM: 1000nM; for inhibition at 10 µM: 10000nM
ABL1 F317I = target: T1, ABL1 F317I (Homo sapiens, UniProt P00519, F317I)
T1 construct: purchased Thermo Fisher Scientific
In short: (§1)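 Compounds were tested in vitro against the kinase panel by a service lab. Assays followed standard ZLyte or Adapta protocols. Activity was recorded as % inhibition at 10 µM or 1 µM, with IC50 values where determined.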

AMPK (A1/B2/G2) = target: T2, AMPK (A1/B2/G2) (Homo sapiens, UniProt Q13131)
T2 construct: purchased Thermo Fisher Scientific
In short: as §1

EEF2K = target: T3, EEF2K (Homo sapiens, UniProt O00418)
T3 construct: purchased Thermo Fisher Scientific
In short: as §1

MATK (HYL) = target: T4, MATK (HYL) (Homo sapiens, UniProt P42679)
T4 construct: purchased Thermo Fisher Scientific
T4 sequence (P42679 1-507): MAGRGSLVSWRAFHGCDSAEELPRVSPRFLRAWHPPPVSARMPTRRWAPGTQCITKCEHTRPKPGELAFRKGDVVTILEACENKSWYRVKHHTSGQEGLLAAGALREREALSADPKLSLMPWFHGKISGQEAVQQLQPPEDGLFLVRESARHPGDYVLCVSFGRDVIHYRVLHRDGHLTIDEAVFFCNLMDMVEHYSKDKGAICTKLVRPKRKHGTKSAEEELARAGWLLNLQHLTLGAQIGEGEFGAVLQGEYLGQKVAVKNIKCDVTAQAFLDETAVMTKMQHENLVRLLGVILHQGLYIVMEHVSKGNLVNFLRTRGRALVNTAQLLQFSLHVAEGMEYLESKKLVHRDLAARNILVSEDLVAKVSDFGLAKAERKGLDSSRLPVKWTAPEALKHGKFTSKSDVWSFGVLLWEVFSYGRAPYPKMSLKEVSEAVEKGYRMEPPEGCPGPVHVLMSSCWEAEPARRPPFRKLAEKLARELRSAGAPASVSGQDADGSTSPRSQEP
In short: as §1

MAPKAPK5 (PRAK) = target: T5, MAPKAPK5 (PRAK) (Homo sapiens, UniProt Q8IW41)
T5 construct: purchased Thermo Fisher Scientific
T5 sequence (Q8IW41 1-473): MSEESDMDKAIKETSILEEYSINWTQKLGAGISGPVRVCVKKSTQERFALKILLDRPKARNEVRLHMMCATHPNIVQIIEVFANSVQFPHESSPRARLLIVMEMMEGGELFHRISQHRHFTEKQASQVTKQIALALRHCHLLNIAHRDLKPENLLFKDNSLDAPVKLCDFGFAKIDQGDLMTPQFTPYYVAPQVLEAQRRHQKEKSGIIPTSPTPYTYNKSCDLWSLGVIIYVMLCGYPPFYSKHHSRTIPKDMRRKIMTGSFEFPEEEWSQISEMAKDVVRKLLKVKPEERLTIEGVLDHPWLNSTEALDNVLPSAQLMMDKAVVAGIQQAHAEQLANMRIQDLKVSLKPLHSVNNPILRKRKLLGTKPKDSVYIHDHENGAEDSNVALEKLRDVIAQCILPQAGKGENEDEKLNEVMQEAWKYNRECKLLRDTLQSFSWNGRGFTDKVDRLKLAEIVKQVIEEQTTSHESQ
In short: as §1

MAPK1 (ERK2) = target: T6, MAPK1 (ERK2) (Homo sapiens, UniProt P28482)
T6 construct: purchased Thermo Fisher Scientific
In short: as §1

EPHA2 = target: T7, EPHA2 (Homo sapiens, UniProt P29317)
T7 construct: purchased Thermo Fisher Scientific
In short: as §1

PRKCB2 (PKC beta II) = target: T8, PRKCB2 (PKC beta II) (Homo sapiens, UniProt P05771)
T8 construct: purchased Thermo Fisher Scientific
In short: as §1

T8 sequence (P05771 1-673 isoform P05771-2): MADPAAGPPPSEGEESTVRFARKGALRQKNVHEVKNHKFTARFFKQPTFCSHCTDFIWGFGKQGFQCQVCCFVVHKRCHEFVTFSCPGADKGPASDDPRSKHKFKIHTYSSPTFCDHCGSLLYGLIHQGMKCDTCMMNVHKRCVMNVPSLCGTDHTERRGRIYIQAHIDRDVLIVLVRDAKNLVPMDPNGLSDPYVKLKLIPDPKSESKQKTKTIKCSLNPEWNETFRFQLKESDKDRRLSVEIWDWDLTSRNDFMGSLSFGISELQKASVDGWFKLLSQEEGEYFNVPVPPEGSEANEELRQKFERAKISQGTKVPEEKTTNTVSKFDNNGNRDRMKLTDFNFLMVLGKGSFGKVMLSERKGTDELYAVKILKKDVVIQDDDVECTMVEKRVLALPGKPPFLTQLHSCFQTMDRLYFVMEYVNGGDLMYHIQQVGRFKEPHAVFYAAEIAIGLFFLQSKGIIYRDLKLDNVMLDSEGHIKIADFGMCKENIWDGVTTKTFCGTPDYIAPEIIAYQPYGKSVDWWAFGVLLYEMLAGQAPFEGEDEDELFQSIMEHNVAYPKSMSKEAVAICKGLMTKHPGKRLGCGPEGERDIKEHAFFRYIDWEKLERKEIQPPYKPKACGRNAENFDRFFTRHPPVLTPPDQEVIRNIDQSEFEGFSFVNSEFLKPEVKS
T2 sequence (Q13131 whole entry): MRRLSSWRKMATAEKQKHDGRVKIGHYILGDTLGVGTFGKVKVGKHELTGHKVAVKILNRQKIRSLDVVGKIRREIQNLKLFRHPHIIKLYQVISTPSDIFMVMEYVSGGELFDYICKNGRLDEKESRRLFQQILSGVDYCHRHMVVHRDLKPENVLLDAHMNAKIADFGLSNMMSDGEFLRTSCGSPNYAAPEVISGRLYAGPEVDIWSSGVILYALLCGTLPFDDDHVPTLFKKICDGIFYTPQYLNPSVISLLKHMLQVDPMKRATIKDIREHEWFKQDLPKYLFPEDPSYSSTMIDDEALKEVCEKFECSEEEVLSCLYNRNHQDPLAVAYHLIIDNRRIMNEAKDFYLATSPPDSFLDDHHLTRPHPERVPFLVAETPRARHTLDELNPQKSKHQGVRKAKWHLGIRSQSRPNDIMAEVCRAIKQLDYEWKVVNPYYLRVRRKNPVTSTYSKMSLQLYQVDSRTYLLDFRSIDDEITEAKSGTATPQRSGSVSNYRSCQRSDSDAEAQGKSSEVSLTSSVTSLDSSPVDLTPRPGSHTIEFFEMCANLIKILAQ
T2 sequence (O43741 whole entry partner): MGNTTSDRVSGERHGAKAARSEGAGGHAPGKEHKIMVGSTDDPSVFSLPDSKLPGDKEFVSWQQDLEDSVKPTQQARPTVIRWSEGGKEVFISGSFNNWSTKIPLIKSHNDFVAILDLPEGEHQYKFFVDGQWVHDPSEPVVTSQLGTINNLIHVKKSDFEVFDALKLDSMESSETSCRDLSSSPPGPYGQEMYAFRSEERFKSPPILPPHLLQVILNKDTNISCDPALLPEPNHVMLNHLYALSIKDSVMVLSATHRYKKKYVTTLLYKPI
T2 sequence (Q9UGJ0 whole entry partner): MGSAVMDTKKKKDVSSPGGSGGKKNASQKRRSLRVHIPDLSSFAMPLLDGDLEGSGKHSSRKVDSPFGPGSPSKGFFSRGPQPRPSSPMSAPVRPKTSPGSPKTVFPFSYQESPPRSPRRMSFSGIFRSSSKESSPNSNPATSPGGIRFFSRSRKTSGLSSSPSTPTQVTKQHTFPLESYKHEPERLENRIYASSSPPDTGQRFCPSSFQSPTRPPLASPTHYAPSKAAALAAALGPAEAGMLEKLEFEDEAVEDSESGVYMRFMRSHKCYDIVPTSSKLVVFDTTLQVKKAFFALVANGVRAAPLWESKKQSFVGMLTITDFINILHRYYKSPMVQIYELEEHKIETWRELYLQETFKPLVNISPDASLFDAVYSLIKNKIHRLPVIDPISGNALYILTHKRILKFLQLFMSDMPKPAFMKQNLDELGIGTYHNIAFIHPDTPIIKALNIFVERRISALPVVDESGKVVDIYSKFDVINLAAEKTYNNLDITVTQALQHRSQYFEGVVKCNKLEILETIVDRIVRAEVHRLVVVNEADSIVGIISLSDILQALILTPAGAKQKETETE
T6 sequence (P28482 whole entry): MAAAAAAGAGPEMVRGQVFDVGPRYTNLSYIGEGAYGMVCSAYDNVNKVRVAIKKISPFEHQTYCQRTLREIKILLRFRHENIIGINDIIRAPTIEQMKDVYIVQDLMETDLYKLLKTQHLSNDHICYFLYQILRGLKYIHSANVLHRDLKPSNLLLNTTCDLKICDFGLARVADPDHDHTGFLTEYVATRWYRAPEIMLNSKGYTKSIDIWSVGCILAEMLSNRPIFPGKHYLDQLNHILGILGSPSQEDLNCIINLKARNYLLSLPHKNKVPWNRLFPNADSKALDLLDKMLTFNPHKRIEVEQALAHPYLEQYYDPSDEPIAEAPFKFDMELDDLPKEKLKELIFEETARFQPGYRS
T7 sequence (P29317 24-976): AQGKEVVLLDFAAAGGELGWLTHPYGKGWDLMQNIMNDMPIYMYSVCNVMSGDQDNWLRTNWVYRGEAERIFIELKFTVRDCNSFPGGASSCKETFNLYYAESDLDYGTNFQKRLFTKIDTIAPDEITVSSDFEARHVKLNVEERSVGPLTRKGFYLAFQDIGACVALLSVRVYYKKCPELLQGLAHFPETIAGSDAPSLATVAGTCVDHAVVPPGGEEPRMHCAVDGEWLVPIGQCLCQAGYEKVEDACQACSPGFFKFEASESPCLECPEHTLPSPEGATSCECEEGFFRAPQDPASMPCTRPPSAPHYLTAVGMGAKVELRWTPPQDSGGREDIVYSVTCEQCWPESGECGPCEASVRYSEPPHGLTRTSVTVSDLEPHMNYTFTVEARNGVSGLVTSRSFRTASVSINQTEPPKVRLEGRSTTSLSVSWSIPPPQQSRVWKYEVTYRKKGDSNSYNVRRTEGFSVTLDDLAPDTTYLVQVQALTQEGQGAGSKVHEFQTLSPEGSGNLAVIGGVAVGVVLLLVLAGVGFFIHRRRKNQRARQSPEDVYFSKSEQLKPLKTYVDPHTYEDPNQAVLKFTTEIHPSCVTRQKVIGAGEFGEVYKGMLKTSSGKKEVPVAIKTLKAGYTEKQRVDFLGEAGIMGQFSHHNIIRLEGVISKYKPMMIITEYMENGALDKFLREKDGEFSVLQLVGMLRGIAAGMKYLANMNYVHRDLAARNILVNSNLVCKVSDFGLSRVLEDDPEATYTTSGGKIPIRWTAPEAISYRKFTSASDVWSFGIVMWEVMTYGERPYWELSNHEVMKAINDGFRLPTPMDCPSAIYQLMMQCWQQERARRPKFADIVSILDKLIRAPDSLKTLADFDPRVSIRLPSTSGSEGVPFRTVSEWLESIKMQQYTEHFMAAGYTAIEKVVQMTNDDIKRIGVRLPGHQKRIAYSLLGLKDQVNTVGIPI
T1 sequence (P00519 whole entry F317I): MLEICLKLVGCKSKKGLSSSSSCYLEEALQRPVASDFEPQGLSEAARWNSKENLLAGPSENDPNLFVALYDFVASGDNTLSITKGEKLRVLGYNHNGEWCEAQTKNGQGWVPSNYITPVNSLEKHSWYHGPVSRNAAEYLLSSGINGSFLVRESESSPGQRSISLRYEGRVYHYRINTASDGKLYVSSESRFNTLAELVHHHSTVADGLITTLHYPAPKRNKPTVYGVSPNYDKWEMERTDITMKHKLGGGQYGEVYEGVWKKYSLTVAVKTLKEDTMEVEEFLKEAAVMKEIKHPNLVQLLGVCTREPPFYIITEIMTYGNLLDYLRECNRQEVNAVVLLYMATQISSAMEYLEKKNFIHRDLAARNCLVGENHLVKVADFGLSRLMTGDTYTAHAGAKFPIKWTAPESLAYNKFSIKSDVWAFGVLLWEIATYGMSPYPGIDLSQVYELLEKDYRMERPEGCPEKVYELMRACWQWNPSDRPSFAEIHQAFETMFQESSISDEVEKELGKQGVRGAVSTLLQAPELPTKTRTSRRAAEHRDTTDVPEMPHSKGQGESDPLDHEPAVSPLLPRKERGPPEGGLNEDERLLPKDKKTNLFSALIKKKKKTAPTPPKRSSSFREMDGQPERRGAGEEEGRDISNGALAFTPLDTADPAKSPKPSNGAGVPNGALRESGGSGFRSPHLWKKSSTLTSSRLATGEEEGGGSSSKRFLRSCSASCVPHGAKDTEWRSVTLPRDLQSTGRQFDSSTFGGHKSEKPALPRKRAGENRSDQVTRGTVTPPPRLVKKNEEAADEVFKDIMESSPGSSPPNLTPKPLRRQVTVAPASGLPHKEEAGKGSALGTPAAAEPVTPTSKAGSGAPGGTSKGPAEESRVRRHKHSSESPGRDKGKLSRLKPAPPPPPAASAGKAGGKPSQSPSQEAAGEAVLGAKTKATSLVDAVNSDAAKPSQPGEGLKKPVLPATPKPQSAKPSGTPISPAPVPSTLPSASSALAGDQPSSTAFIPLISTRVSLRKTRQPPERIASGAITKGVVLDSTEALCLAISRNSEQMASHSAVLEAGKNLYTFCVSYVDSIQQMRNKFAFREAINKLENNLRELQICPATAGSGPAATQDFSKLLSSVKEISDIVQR

SMILES	inhibition at 1 µM (ABL1 F317I) [%]	inhibition at 10 µM (ABL1 F317I) [%]	inhibition at 1 µM (AMPK (A1/B2/G2)) [%]	inhibition at 10 µM (AMPK (A1/B2/G2)) [%]	inhibition at 1 µM (EEF2K) [%]	inhibition at 10 µM (EEF2K) [%]	inhibition at 1 µM (MATK (HYL)) [%]	inhibition at 10 µM (MATK (HYL)) [%]	inhibition at 1 µM (MAPKAPK5 (PRAK)) [%]	inhibition at 10 µM (MAPKAPK5 (PRAK)) [%]	inhibition at 1 µM (MAPK1 (ERK2)) [%]	inhibition at 10 µM (MAPK1 (ERK2)) [%]	inhibition at 1 µM (EPHA2) [%]	inhibition at 10 µM (EPHA2) [%]	inhibition at 1 µM (PRKCB2 (PKC beta II)) [%]	inhibition at 10 µM (PRKCB2 (PKC beta II)) [%]
COc1ccc2cc3c(N)nn(C(=O)c4cccc(N(C)C)c4)c3nc2c1 [MW05, (3-Amino-7-methoxypyrazolo[3,4-b]quinolin-1-yl)-[3-(dimethylamino)phenyl]methanone]	6	-1	-10	4	3	5	13	13	7	7	5	7	13	-15	9	-5
COc1ccc2c(c1OC)c(=O)n1c3ccc(O)cc3c3ccnc2c31 [MW01, 5-Hydroxy-10,11-dimethoxy-9H-benzo[c]indolo[3,2,1-ij][1,5]naphthyridin-9-one]	8	19	-6	5	11	37	14	2	8	18	4	9	6	14	11	14
